Measured values published in ChEMBL document CHEMBL1201862, “PubChem BioAssay data set” (2004).
Activity calls are given as the source filed them.

Key:
[1] = EDANS-DABCYL fluorescence interference, concentration series, dose response, artefact control for kallikrein-7 zymogen activator project, biochemical, fluorescence intensity, triplicate (AID 720493)
[2] = biological target: Kallikrein-7 (Homo sapiens, UniProt P49862); assay: Fluorescence Intensity-based biochemical primary high throughput dose response assay to identify activators of kallikrein-7 (K7) zymogen.
[3] = ZM109 Env clade C HIV-1 fusion inhibitors, dose response, HeLa effector, CEM target cells, luciferase, cherry-pick (AID 652058); assay type: functional, cell-based
[4] = CEM21 cell cytotoxicity, dose response, cytotoxicity control, plate reader, dry powder (AID 687026); assay type: functional, cell-based
[5] = inhibitors of HIV Env-driven cell fusion, dose response, cherry-pick (AID 652057); assay type: functional, cell-based
[6] = CEM21 lymphoblast cell cytotoxicity, dose response, cytotoxicity control for viral fusion inhibitor project, CellTiter-Glo luminescence, cherry-picked (AID 652042); assay type: functional, cell-based;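 further: potency for signal decrease meaning cytotoxicity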
[7] = off-target signal loss in HeLa-CEM21 co-culture – HeLa F-luc CTL cells, cherry-picked, counter-screen for HIV-1 Env fusion inhibitor project, dose response (AID 652040); assay type: functional, cell-based;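 further: potency for signal decrease marking cytotoxic or nonspecific inhibition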
[8] = inhibitors of clade B AD8 Env fusion, dose response, cell-based, cherry-pick (AID 652062); assay type: functional;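 further: luciferase signal from cell-cell fusion driven by HIV-1 clade B AD8 Env; potency is for inhibitors of fusion seen as a drop in luminescence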
[9] = HEK293T cell cytotoxicity, dose response, cytotoxicity control for HIV Vif inhibitor project, cherry-picks (AID 652208); assay type: functional, cell-based
[10] = biological target: T1, Corticotropin-releasing factor receptor 2/Corticotropin-releasing factor-binding protein (Homo sapiens, UniProt P24387+Q13324); assay: activators of CRF receptor 2 with binding protein – uHTS hits, confirmation (AID 602473); assay type: functional; settings: read-out: EC50_Mean
T1 sequence (Q13324 whole entry): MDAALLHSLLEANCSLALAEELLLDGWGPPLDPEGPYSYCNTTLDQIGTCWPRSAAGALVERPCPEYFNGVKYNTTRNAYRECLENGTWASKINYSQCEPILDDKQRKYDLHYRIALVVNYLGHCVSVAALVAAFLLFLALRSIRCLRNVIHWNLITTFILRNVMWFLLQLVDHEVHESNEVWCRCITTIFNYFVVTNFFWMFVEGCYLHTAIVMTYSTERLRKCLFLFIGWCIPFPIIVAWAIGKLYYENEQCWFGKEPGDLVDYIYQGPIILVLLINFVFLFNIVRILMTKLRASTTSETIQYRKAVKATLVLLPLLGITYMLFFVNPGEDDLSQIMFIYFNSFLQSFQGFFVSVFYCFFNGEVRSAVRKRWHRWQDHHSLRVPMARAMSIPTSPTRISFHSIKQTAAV
T1 sequence (P24387 whole entry): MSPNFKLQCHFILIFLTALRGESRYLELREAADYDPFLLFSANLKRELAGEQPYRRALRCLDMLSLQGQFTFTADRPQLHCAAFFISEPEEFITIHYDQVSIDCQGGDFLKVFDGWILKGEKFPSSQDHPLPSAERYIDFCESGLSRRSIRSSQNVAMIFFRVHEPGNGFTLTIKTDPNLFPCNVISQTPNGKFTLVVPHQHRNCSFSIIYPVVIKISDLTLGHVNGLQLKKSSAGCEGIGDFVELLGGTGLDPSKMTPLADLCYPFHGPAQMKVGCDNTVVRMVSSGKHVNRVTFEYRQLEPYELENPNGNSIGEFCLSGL

[11] = biological target: ADP-ribosylation factor GTPase-activating protein 1 (Rattus norvegicus, UniProt Q62848); assay: Fluorescence polarization-based biochemical high throughput dose response screening assay to identify inhibitors of ADP-ribosylation factor GTPase activating protein 1 (ARFGAP1).; assay type: functional
[12] = biological target: Arf-GAP with SH3 domain, ANK repeat and PH domain-containing protein 1 (Homo sapiens, UniProt Q9ULH1); assay type: functional;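 further: biochemical fluorescence polarization dose–response screen measuring inhibition of ASAP1; ASAP1 GAP domain stimulating GTP hydrolysis by truncated human ARF1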
[13] = T. cruzi growth inhibition in host cells, dose response, cell-based, plate reader, dry powder, set 2 (AID 652275); assay type: functional
[14] = biological target: Protein Wnt-3a (Mus musculus, UniProt P27467); assay: SAR analysis of small molecule antagonists of Gli-SUFU in a Wnt3a luminescent reporter assay.; assay type: functional
[15] = A Cell-Based Confirmatory Screen for Compounds that Inhibit VEEV, TC-83 (8).; assay type: functional
[16] = A Cell-Based Confirmatory Screen for Compounds that Inhibit VEEV, TC-83 (7).; assay type: functional
[17] = TRPM1 promoter luciferase reporter signal decrease, dose response, MITF inhibitor project, cell-based, SK-MEL-5, dry powder, set 8 (AID 624430); assay type: functional
[18] = MITF: Counter assay: A375 proliferation Measured in Cell-Based System Using Plate Reader - 2084-03_Inhibitor_Dose_DryPowder_Activity_Set8.; assay type: functional; settings: A-375
[19] = MITF Orthogonal Assay: SK-MEL-5 CTG Assay Measured in Cell-Based System Using Plate Reader - 2084-02_Inhibitor_Dose_DryPowder_Activity_Set7.; assay type: functional
[20] = A549 cell cytotoxicity, dose response, cytotoxicity control, CellTiter-Glo luminescence, dry powder, set 3 (AID 743146); assay type: functional, cell-based
[21] = HEK293 cell cytotoxicity, dose response, cytotoxicity control, cherry-picks, set 5 (AID 1053117); assay type: functional, cell-based

Chain of ADP-ribosylation factor GTPase-activating protein 1 (Q62848 whole entry, the tested form may be a part): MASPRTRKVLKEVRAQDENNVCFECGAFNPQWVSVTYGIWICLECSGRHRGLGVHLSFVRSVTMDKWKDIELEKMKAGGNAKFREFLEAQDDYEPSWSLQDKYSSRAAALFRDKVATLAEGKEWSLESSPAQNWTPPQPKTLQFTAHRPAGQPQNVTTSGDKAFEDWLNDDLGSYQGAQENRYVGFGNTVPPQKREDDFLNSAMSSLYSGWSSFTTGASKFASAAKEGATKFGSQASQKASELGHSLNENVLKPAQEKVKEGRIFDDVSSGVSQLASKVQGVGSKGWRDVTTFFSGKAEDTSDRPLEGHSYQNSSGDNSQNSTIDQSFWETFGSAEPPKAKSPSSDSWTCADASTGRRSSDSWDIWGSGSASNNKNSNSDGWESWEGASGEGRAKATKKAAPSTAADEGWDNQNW
Chain of Protein Wnt-3a (P27467 whole entry): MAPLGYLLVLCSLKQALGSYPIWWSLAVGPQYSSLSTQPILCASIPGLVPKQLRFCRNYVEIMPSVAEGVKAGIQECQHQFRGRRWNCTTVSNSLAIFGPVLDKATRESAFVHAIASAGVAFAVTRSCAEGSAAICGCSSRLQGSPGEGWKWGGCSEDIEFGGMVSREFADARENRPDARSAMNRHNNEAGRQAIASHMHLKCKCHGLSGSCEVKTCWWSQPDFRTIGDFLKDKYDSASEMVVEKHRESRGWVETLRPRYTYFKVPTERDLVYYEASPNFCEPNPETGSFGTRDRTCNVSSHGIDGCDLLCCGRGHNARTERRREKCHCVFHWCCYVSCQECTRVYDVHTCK
Chain of Kallikrein-7 (P49862 whole entry, the tested form may be a part): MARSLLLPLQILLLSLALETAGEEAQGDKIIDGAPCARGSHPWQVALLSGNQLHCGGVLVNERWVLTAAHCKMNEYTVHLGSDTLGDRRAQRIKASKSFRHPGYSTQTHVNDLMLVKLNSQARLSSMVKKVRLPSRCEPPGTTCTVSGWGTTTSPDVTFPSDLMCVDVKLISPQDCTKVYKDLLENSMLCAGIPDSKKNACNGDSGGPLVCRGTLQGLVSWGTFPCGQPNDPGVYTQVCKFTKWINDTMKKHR
Chain of Arf-GAP with SH3 domain, ANK repeat and PH domain-containing protein 1 (Q9ULH1 whole entry, the tested form may be a part): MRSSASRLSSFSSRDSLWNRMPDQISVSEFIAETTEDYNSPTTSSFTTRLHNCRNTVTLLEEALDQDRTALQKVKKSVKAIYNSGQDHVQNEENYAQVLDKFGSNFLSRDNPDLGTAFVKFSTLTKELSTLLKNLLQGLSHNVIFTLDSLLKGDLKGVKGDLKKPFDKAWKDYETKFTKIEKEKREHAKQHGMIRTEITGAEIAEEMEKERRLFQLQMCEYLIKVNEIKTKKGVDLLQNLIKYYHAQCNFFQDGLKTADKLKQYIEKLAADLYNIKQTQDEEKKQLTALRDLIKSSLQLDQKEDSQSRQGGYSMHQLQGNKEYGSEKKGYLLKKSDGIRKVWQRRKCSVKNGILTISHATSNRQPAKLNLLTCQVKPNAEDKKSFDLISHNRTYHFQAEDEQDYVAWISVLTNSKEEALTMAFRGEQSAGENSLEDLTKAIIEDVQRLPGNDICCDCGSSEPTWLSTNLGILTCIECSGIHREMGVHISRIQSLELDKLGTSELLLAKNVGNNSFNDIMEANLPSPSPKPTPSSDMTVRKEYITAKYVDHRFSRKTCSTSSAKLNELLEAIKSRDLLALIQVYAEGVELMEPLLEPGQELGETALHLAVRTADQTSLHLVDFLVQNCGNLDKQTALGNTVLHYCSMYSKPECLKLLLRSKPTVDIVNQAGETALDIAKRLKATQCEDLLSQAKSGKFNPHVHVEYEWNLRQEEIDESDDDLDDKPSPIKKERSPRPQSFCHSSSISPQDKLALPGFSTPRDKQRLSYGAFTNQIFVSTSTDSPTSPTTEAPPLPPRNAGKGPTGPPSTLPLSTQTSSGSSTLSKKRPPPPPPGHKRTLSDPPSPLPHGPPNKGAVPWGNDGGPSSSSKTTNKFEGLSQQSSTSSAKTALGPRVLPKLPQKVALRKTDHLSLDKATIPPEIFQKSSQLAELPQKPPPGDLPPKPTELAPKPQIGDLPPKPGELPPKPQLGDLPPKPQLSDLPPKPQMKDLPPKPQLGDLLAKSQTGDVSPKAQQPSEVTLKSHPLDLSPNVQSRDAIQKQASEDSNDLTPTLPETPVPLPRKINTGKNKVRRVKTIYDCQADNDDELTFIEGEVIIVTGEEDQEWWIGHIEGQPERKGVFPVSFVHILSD

SMILES: COc1cc2c(cc1OC)C(=O)CC(C)S2 (stereo unspecified)
- EC50 [1]: > 7.73 µM (active)
- EC50 [2]: 8.28 µM (active)

SMILES: CCCn1nc(C(=O)Nc2ccc3nc(N4CCOCC4)sc3c2)ccc1=O
- AC50 [3]: 1.04 µM (active)
- AC50 [4]: > 70 µM (inactive)
- AC50 [5]: 1.85 µM (active)
- AC50 [6]: 67.1 µM (active)
- AC50 [7]: > 70 µM (inactive)
- AC50 [8]: 10.3 µM (active)

SMILES: O=C(NCc1ccccc1C(F)(F)F)c1cccc2c1C(=O)c1ccc(N3CCCCC3)cc1S2(=O)=O
- AC50 [9]: > 52 µM (inactive)
- EC50 [10]: 5.37 µM (active)

SMILES: COc1ccccc1C=NNC(=O)NN=Cc1ccccc1OC
- IC50 [11]: 25.6 µM (inactive)
- IC50 [12]: 23.2 µM (inactive)

SMILES: CC(C)(C)[S@@+]([O-])N1Cc2cc(C(=O)NCc3ccc4c(c3)OCO4)nc(-c3cccc(-c4cccnc4)c3)c2[C@H]1CCO
- AC50 [13]: 1.67 µM (active)

SMILES: O=C(Nc1cc(N2CCCCC2)ncn1)c1ccccc1C(F)(F)F
- IC50 [14]: 6.48 µM (active)

SMILES: CN1CCN(C)/C(=N/c2ccc([N+](=O)[O-])cc2C(=O)Nc2ccccc2)C1
- IC50 [15]: < 0.073 µM (active)
- IC50 [16]: < 0.04 µM (active)

SMILES: CC(C)N1CCN(C2=C(Nc3cccc(Cl)c3)C(=O)c3ccccc3C2=O)CC1
- AC50 [17]: 2.47 µM (active)
- AC50 [18]: 30.1 µM (active)
- AC50 [19]: 7.16 µM (active)

SMILES: O=C(CCNC(=O)c1ccc(Cl)cc1)N[C@H]1CCCc2ccccc21
- AC50 [20]: > 52 µM (inactive)

SMILES: O=S(=O)(c1cccc(F)c1)N1CC[C@@H]2[C@H]1c1cc(-c3cccc(F)c3)ccc1N[C@@H]2CO
- AC50 [21]: 33.9 µM (active)
